The target in this assay is T1, Vascular cell adhesion protein 1 (Homo sapiens, UniProt P19320).
T1 sequence (P19320 whole entry): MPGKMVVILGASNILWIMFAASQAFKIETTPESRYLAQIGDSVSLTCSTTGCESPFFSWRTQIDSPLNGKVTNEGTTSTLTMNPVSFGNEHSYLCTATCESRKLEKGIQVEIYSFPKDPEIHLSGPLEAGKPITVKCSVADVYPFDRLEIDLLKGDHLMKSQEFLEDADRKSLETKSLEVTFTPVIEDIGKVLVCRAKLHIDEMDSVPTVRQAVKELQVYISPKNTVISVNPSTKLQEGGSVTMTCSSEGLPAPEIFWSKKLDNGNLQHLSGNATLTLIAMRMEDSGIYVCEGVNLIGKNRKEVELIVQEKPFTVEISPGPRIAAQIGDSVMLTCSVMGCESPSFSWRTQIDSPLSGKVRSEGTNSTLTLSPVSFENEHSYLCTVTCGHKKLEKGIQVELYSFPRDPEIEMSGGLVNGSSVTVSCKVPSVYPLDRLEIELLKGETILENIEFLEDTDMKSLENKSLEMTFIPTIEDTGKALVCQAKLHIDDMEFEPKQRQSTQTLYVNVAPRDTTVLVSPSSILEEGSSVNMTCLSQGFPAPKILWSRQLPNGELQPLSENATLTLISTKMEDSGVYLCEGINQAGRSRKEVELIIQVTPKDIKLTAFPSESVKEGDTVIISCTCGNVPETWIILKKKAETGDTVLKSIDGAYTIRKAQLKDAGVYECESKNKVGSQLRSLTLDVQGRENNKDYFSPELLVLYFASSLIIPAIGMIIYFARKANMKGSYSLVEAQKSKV
Nature of the assay: Ability to inhibit expression of Vascular cell adhesion molecule 1; No effect.

SMILES strings stand for the structures.

As to `O=C(O)C1CCN(S(=O)(=O)c2ccc(Cl)c([N+](=O)[O-])c2)CC1`, the IC50 result is “Not Active”.

As for `CCN(CC)S(=O)(=O)c1cccc([N+](=O)[O-])c1`, the IC50 result is given as “Not Active”. The same measure for `CCN(CC)S(=O)(=O)c1ccc(Cl)cc1`: “Not Active”; for `N#Cc1cc(Cl)cc(Cl)c1`: “Not Active”. Consider `O=[N+]([O-])c1ccccc1Cl`, for which the IC50 entry was “Not Active”. For `CCN(CC)c1ccc(S(=O)(=O)N(CC)CC)cc1[N+](=O)[O-]`, the IC50 result is reported as “Not Active”.

These data come from ChEMBL document CHEMBL1134135, “Nitrobenzene compounds inhibit expression of VCAM-1” (Bioorg Med Chem Lett, 2001).
